The source of these data is PubChem BioAssay (NCI).

Structures are written as SMILES.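 Compound exposure: 48 hours, 5 concentrations, 96-well plates. GI50 marks 50% less growth. The concentration for full growth arrest is given as TGI.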 Some results are limits rather than exact numbers.

Test systems include HOP-62 NSCLC; HOP-92 NSCLC; SF-295 CNS; SK-MEL-28 melanoma; HCT-15 colon; MCF7 breast; RXF 393 renal; HT29 colon; MDA-MB-231 breast; OVCAR-5 ovarian.
Common to all, as to experiment: inhibition of tumour cell growth, NCI panel, 48 h

Turning to `O=C1c2cccc3cccc(c23)C(=O)N1CCCCOc1ccc(-c2nc3ccc(N4CCOCC4)cc3[nH]2)cc1`, the GI50 in the assay with HOP-62 NSCLC is 2.47 µM; with HOP-92 NSCLC, 2 µM; in the assay with SF-295 CNS, 1.63 µM; with SK-MEL-28 melanoma, 1.42 µM; in the assay on HCT-15 colon, 2.14 µM; with MCF7 breast, 2.92 µM. In addition, the GI50 with RXF 393 renal is 0.547 µM; in the assay on HT29 colon, 2.23 µM; with MDA-MB-231 breast, 3.27 µM; in the assay with OVCAR-5 ovarian, 18.9 µM. Further, the TGI was determined as 5.9 µM with HOP-62 NSCLC; 4.37 µM in the assay on HOP-92 NSCLC; 2.86 µM with SK-MEL-28 melanoma; 8.01 µM in the assay on HCT-15 colon; 12.8 µM in the assay with MCF7 breast; 3 µM in the assay on RXF 393 renal. Besides, the results for the TGI in the assay with HT29 colon, in the assay on MDA-MB-231 breast and with OVCAR-5 ovarian were more than 35.3 µM, 10.5 µM and 34.9 µM, respectively.

With `CNCCNc1nc2ccccc2c2c(=O)c3cccc(OC)c3sc12`, the GI50 was 1.25 µM with HOP-62 NSCLC; 1.13 µM with HOP-92 NSCLC; 1.55 µM with SF-295 CNS; 1.94 µM with SK-MEL-28 melanoma; 0.829 µM with HCT-15 colon; 1.17 µM with MCF7 breast. Moreover, the GI50 is 1.38 µM in the assay on RXF 393 renal, 0.652 µM in the assay with HT29 colon, 1.3 µM with MDA-MB-231 breast and 1.64 µM with OVCAR-5 ovarian. Further, the TGI with HOP-62 NSCLC was found to be 2.92 µM; in the assay on HOP-92 NSCLC, 3.77 µM; with SF-295 CNS, 3.13 µM; in the assay on SK-MEL-28 melanoma, 3.62 µM; with HCT-15 colon, 2.15 µM; with MCF7 breast, 2.59 µM. The TGI with RXF 393 renal stood at 2.75 µM; in the assay with HT29 colon, 2.28 µM; in the assay with MDA-MB-231 breast, 2.78 µM; with OVCAR-5 ovarian it was 3.27 µM.

Turning to `O=C1NC(=NCCc2ccccc2Cl)S/C1=C\c1ccc2ncccc2c1`, the GI50 in the assay on HOP-62 NSCLC is 6.26 µM; in the assay with HOP-92 NSCLC it was 4 µM; in the assay on SF-295 CNS, 2.14 µM; with SK-MEL-28 melanoma, 10.7 µM; with HCT-15 colon, 1.18 µM; in the assay with MCF7 breast, 1.32 µM. For the same molecule, the GI50 was 4.85 µM in the assay with RXF 393 renal, 2.79 µM in the assay with HT29 colon, 10.3 µM with MDA-MB-231 breast and 12.2 µM in the assay on OVCAR-5 ovarian. For the same molecule, the TGI with HOP-62 NSCLC was more than 25 µM; in the assay on HOP-92 NSCLC it was 22.2 µM; in the assay with SF-295 CNS, more than 11.2 µM; in the assay on SK-MEL-28 melanoma, more than 25 µM; in the assay on HCT-15 colon, more than 25 µM; in the assay on MCF7 breast it was more than 25 µM. For the same molecule, the TGI in the assay on RXF 393 renal is more than 25 µM; in the assay with HT29 colon, more than 18.9 µM; in the assay on MDA-MB-231 breast it was more than 25 µM; in the assay on OVCAR-5 ovarian, more than 25 µM.

Consider `NC(=O)NC(=O)CI`, for which the GI50 with HOP-62 NSCLC is 20.5 µM; in the assay on HOP-92 NSCLC it was 1.65 µM; in the assay on SF-295 CNS, 23.9 µM; with SK-MEL-28 melanoma it was 13 µM; with HCT-15 colon, 1.68 µM; with MCF7 breast, 3.33 µM. For the same molecule, the GI50 was 5.97 µM in the assay on RXF 393 renal, 8.97 µM in the assay on HT29 colon, 6.99 µM in the assay on MDA-MB-231 breast and 11.3 µM with OVCAR-5 ovarian. For the same molecule, the TGI in the assay with HOP-62 NSCLC was 43.1 µM; in the assay on HOP-92 NSCLC, 3.89 µM; in the assay with SF-295 CNS, more than 57.7 µM; with SK-MEL-28 melanoma, 26.2 µM; in the assay with HCT-15 colon it was 3.55 µM; in the assay on MCF7 breast, 16.6 µM. The TGI in the assay with RXF 393 renal turned out to be 18.3 µM; with HT29 colon, 25.1 µM; in the assay with MDA-MB-231 breast it was 19.9 µM; in the assay on OVCAR-5 ovarian, 26.1 µM.

Take `CCCCOC(=O)N[C@H]1CCc2cc(OC)c(OC)c(OC)c2-c2ccc(SC)c(=O)cc21`: the TGI is 40.3 µM with HOP-62 NSCLC; 30.9 µM with HOP-92 NSCLC; less than 0.0361 µM in the assay with SF-295 CNS; 16.2 µM with SK-MEL-28 melanoma; more than 15.8 µM with HCT-15 colon; 26 µM in the assay with MCF7 breast. In addition, the TGI with RXF 393 renal was 2.07 µM; in the assay with HT29 colon it was less than 0.0281 µM; in the assay with MDA-MB-231 breast it was 2.8 µM; in the assay with OVCAR-5 ovarian it was 91.8 µM.

In the case of `O=C1c2cccnc2-c2nc(-c3ccc([N+](=O)[O-])cc3)cc3c2c1nc1ccccc13`, the GI50 in the assay on HOP-62 NSCLC is 12.2 µM; in the assay with HOP-92 NSCLC, 24 µM; with SF-295 CNS it was 4.47 µM; in the assay on SK-MEL-28 melanoma it was 12.7 µM; with HCT-15 colon, 1.97 µM; with MCF7 breast, 1.86 µM. Further, the GI50 in the assay with RXF 393 renal is 9.37 µM; in the assay with HT29 colon, 11.9 µM; in the assay with MDA-MB-231 breast, 7.97 µM; in the assay on OVCAR-5 ovarian, 12.5 µM. For the same molecule, the TGI is 28.3 µM in the assay with HOP-62 NSCLC; 83.6 µM in the assay on HOP-92 NSCLC; 15.4 µM in the assay with SF-295 CNS; 27.8 µM in the assay with SK-MEL-28 melanoma; 8.04 µM in the assay on HCT-15 colon; more than 21.5 µM with MCF7 breast. The TGI in the assay on RXF 393 renal is 37.7 µM; in the assay with HT29 colon, 26.3 µM; with MDA-MB-231 breast, more than 100 µM; in the assay on OVCAR-5 ovarian, 27.5 µM.

With `O=Cc1ccc(C(F)(F)F)cc1.[C-]#[O+].[C-]#[O+].[C-]#[O+].[Cr]`, the GI50 with HOP-62 NSCLC is 46.6 µM; in the assay on HOP-92 NSCLC it was 24.8 µM; in the assay with SF-295 CNS, 38.1 µM; in the assay on SK-MEL-28 melanoma it was 63 µM; in the assay on HCT-15 colon it was 26.1 µM; in the assay with MCF7 breast, 24.7 µM. Moreover, the GI50 in the assay with RXF 393 renal is 18.6 µM; with HT29 colon, 22.6 µM; in the assay on MDA-MB-231 breast, 25 µM; in the assay with OVCAR-5 ovarian, 53.9 µM. Besides, the TGI was more than 100 µM in the assay on HOP-62 NSCLC; more than 100 µM in the assay on HOP-92 NSCLC; more than 100 µM in the assay with SF-295 CNS; more than 100 µM in the assay with SK-MEL-28 melanoma; 82.7 µM with HCT-15 colon; more than 100 µM with MCF7 breast. For the same molecule, the TGI was 66.6 µM in the assay on RXF 393 renal, 54.3 µM in the assay with HT29 colon, more than 100 µM in the assay with MDA-MB-231 breast and more than 100 µM in the assay with OVCAR-5 ovarian.

Turning to `Fc1ccc(Nc2nc(Nc3ccc(-c4nc5ccccc5[nH]4)cc3)nc(N3CCCC3)n2)cc1`, the GI50 in the assay with HOP-62 NSCLC was 2.12 µM; in the assay with HOP-92 NSCLC it was 1.76 µM; in the assay with SF-295 CNS it was 1.97 µM; in the assay on SK-MEL-28 melanoma it was 1.87 µM; in the assay with HCT-15 colon, 2.25 µM; in the assay with MCF7 breast, 1.9 µM. Also, the GI50 in the assay on RXF 393 renal is 2.17 µM; in the assay on HT29 colon, 2.54 µM; in the assay on MDA-MB-231 breast it was 1.87 µM; with OVCAR-5 ovarian it was 2.93 µM. In addition, the TGI with HOP-62 NSCLC was 5.09 µM; with HOP-92 NSCLC, 5.38 µM; in the assay on SF-295 CNS, 4.37 µM; in the assay with SK-MEL-28 melanoma it was 3.66 µM; in the assay with HCT-15 colon, 6.03 µM; in the assay with MCF7 breast, 5.22 µM. Also, the TGI turned out to be 4.57 µM in the assay on RXF 393 renal, 5.62 µM in the assay with HT29 colon, 4.35 µM in the assay with MDA-MB-231 breast and 8.19 µM in the assay on OVCAR-5 ovarian.
